According to patent publication US12077503B2, “Substituted cyclic amides and their use as herbicides” (FMC CORPORATION, priority 2015, dated 2024):

Tests used:
Format in all cases: in vivo
Kochia (Kochia scoparia) [1] = experiment: Test A preemergence; conditions: Bassia scoparia, pre-emergence, 240 h, preemergence, 0 to 100 scale where 0 is no effect and 100 is complete control, read-out: Kochia plant response rating; for pest or weed control at 125 g/ha: 125 g ai/ha, approx. 10 d; for pest or weed control at 500 g/ha: 500 g ai/ha
How it was run: (§1)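 Preemergence directed soil spray on seeded pots, or postemergence application to plants 2–10 cm, one- to two-leaf. Solvent mixture non-phytotoxic, with surfactant. Scored ~10 d later, visually, 0–100 vs untreated.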

[2] = tested on: barnyardgrass (Echinochloa crus-galli); experiment: Test A preemergence; conditions: Echinochloa crus-galli, pre-emergence, 240 h, preemergence, read-out: Barnyardgrass plant response rating; for pest or weed control at 125 g/ha: 125 g ai/ha, approx. 10 d; for pest or weed control at 500 g/ha: 500 g ai/ha
How it was run: as §1

[3] = tested on: giant foxtail (Setaria faberii); experiment: Test A preemergence; conditions: Setaria faberi, pre-emergence, 240 h, preemergence, 0 to 100 scale where 0 is no effect and 100 is complete control, read-out: Foxtail, Giant plant response rating; for pest or weed control at 125 g/ha: 125 g ai/ha, approx. 10 d; for pest or weed control at 500 g/ha: 500 g ai/ha
How it was run: as §1

[4] = tested on: pigweed (Amaranthus retroflexus); experiment: Test A preemergence; conditions: Amaranthus retroflexus, pre-emergence, 240 h, preemergence, 0 to 100 scale where 0 is no effect and 100 is complete control, read-out: Pigweed plant response rating; for pest or weed control at 125 g/ha: 125 g ai/ha, approx. 10 d; for pest or weed control at 500 g/ha: 500 g ai/ha
[5] = tested on: ragweed (common ragweed, Ambrosia elatior); experiment: Test A preemergence; conditions: Ambrosia artemisiifolia, pre-emergence, 240 h, preemergence, 0 to 100 scale where 0 is no effect and 100 is complete control, read-out: Ragweed plant response rating; for pest or weed control at 125 g/ha: 125 g ai/ha, approx. 10 d; for pest or weed control at 500 g/ha: 500 g ai/ha
How it was run: as §1

[6] = tested on: ryegrass, Italian (Italian ryegrass, Lolium multiflorum); experiment: Test A preemergence; conditions: Lolium multiflorum, pre-emergence, 240 h, preemergence, 0 to 100 scale where 0 is no effect and 100 is complete control, read-out: Ryegrass, Italian plant response rating; for pest or weed control at 125 g/ha: 125 g ai/ha, approx. 10 d; for pest or weed control at 500 g/ha: 500 g ai/ha
How it was run: as §1

[7] = tested on: Galium (catchweed bedstraw, Galium aparine); experiment: Test A postemergence; conditions: Galium, post-emergence, 240 h, postemergence, read-out: Galium plant response rating; for pest or weed control at 125 g/ha: 125 g ai/ha, visual injury on 0 to 100 scale (0 no effect, 100 complete control), approx. 10 d; for pest or weed control at 500 g/ha: 500 g ai/ha, 0 to 100 scale, 0 is no effect, 100 is complete control
How it was run: as §1

Kochia (Kochia scoparia) [8] = experiment: Test A postemergence; conditions: Bassia scoparia, post-emergence, 240 h, postemergence, read-out: Kochia plant response rating; for pest or weed control at 125 g/ha: 125 g ai/ha, visual injury on 0 to 100 scale (0 no effect, 100 complete control), approx. 10 d; for pest or weed control at 500 g/ha: 500 g ai/ha, 0 to 100 scale, 0 is no effect, 100 is complete control
How it was run: as §1

[9] = tested on: barnyardgrass (Echinochloa crus-galli); experiment: Test A postemergence; conditions: Echinochloa crus-galli, post-emergence, 240 h, postemergence, read-out: Barnyardgrass plant response rating; for pest or weed control at 125 g/ha: 125 g ai/ha, visual injury on 0 to 100 scale (0 no effect, 100 complete control), approx. 10 d; for pest or weed control at 500 g/ha: 500 g ai/ha, 0 to 100 scale, 0 is no effect, 100 is complete control
How it was run: as §1

corn (Zea mays) = experiment: Test A postemergence; conditions: Zea mays, post-emergence, 240 h, postemergence, read-out: Corn plant response rating; for plant injury at 125 g/ha: 125 g ai/ha, visual injury on 0 to 100 scale (0 no effect, 100 complete control), approx. 10 d; for plant injury at 500 g/ha: 500 g ai/ha, 0 to 100 scale, 0 is no effect, 100 is complete control
How it was run: as §1

[10] = tested on: giant foxtail (Setaria faberii); experiment: Test A postemergence; conditions: Setaria faberi, post-emergence, 240 h, postemergence, read-out: Foxtail, Giant plant response rating; for pest or weed control at 125 g/ha: 125 g ai/ha, visual injury on 0 to 100 scale (0 no effect, 100 complete control), approx. 10 d; for pest or weed control at 500 g/ha: 500 g ai/ha, 0 to 100 scale, 0 is no effect, 100 is complete control
How it was run: as §1

[11] = tested on: pigweed (Amaranthus retroflexus); experiment: Test A postemergence; conditions: Amaranthus retroflexus, post-emergence, 240 h, postemergence, read-out: Pigweed plant response rating; for pest or weed control at 125 g/ha: 125 g ai/ha, visual injury on 0 to 100 scale (0 no effect, 100 complete control), approx. 10 d; for pest or weed control at 500 g/ha: 500 g ai/ha, 0 to 100 scale, 0 is no effect, 100 is complete control
How it was run: as §1

[12] = tested on: ragweed (common ragweed, Ambrosia elatior); experiment: Test A postemergence; conditions: Ambrosia artemisiifolia, post-emergence, 240 h, postemergence, read-out: Ragweed plant response rating; for pest or weed control at 125 g/ha: 125 g ai/ha, visual injury on 0 to 100 scale (0 no effect, 100 complete control), approx. 10 d; for pest or weed control at 500 g/ha: 500 g ai/ha, 0 to 100 scale, 0 is no effect, 100 is complete control
How it was run: as §1

[13] = tested on: ryegrass, Italian (Italian ryegrass, Lolium multiflorum); experiment: Test A postemergence; conditions: Lolium multiflorum, post-emergence, 240 h, postemergence, read-out: Ryegrass, Italian plant response rating; for pest or weed control at 125 g/ha: 125 g ai/ha, visual injury on 0 to 100 scale (0 no effect, 100 complete control), approx. 10 d; for pest or weed control at 500 g/ha: 500 g ai/ha, 0 to 100 scale, 0 is no effect, 100 is complete control
How it was run: as §1

[14] = tested on: wheat (Triticum aestivum); experiment: Test A postemergence; conditions: Triticum aestivum, post-emergence, 240 h, postemergence, read-out: Wheat plant response rating; for plant injury at 125 g/ha: 125 g ai/ha, visual injury on 0 to 100 scale (0 no effect, 100 complete control), approx. 10 d; for plant injury at 500 g/ha: 500 g ai/ha, 0 to 100 scale, 0 is no effect, 100 is complete control
How it was run: as §1

[15] = 0 to 100 scale where 0 is no effect and 100 is complete control

SMILES: CN1C[C@H](c2csc(C(F)F)c2)[C@@H](C(=O)Nc2ccccc2F)C1=O [Compound 1123]
- pest or weed control at 125 g/ha (Kochia (Kochia scoparia) [1]): 60%
- pest or weed control at 500 g/ha (Kochia (Kochia scoparia) [1]): 80%
- pest or weed control at 125 g/ha [2, 15]: 90%
- pest or weed control at 500 g/ha ([2]; visual injury rating about 10 d after treatment, 0 to 100 scale (0 no effect, 100 complete control)): 90%
- pest or weed control at 125 g/ha [3]: 90%
- pest or weed control at 500 g/ha [3]: 90%
- pest or weed control at 125 g/ha [4]: 0%
- pest or weed control at 500 g/ha [4]: 50%
- pest or weed control at 125 g/ha [5]: 20%
- pest or weed control at 500 g/ha [5]: 60%
- pest or weed control at 125 g/ha [6]: 40%
- pest or weed control at 500 g/ha [6]: 60%
- pest or weed control at 125 g/ha [7]: 40%
- pest or weed control at 500 g/ha [7]: 50%
- pest or weed control at 125 g/ha (Kochia (Kochia scoparia) [8]): 60%
- pest or weed control at 500 g/ha (Kochia (Kochia scoparia) [8]): 70%
- pest or weed control at 125 g/ha [9]: 90%
- pest or weed control at 500 g/ha [9]: 90%
- plant injury at 125 g/ha (corn (Zea mays)): 20%
- plant injury at 500 g/ha (corn (Zea mays)): 80%
- pest or weed control at 125 g/ha [10]: 90%
- pest or weed control at 500 g/ha [10]: 90%
- pest or weed control at 125 g/ha [11]: 0%
- pest or weed control at 500 g/ha [11]: 20%
- pest or weed control at 125 g/ha [12]: 30%
- pest or weed control at 500 g/ha [12]: 50%
- pest or weed control at 125 g/ha [13]: 30%
- pest or weed control at 500 g/ha [13]: 50%
- plant injury at 125 g/ha [14]: 0%
- plant injury at 500 g/ha [14]: 60%

SMILES: CN1CC(c2cccc(/C=C/Cl)c2)C(C(=O)Nc2ccccc2F)C1=O (stereo not drawn) [Compound 1129]
- pest or weed control at 125 g/ha (Kochia (Kochia scoparia) [1]): 0%
- pest or weed control at 500 g/ha (Kochia (Kochia scoparia) [1]): 50%
- pest or weed control at 125 g/ha [2, 15]: 80%
- pest or weed control at 500 g/ha [2, 15]: 90%
- pest or weed control at 125 g/ha [3]: 90%
- pest or weed control at 500 g/ha [3]: 90%
- pest or weed control at 125 g/ha [4]: 0%
- pest or weed control at 500 g/ha [4]: 0%
- pest or weed control at 125 g/ha [5]: 0%
- pest or weed control at 500 g/ha [5]: 0%
- pest or weed control at 125 g/ha [6]: 20%
- pest or weed control at 500 g/ha [6]: 50%
- pest or weed control at 125 g/ha [7]: 0%
- pest or weed control at 500 g/ha [7]: 0%
- pest or weed control at 125 g/ha (Kochia (Kochia scoparia) [8]): 0%
- pest or weed control at 500 g/ha (Kochia (Kochia scoparia) [8]): 0%
- pest or weed control at 125 g/ha [9]: 40%
- pest or weed control at 500 g/ha [9]: 90%
- plant injury at 125 g/ha (corn (Zea mays)): 0%
- plant injury at 500 g/ha (corn (Zea mays)): 0%
- pest or weed control at 125 g/ha [10]: 70%
- pest or weed control at 500 g/ha [10]: 90%
- pest or weed control at 125 g/ha [11]: 0%
- pest or weed control at 500 g/ha [11]: 0%
- pest or weed control at 125 g/ha [12]: 0%
- pest or weed control at 500 g/ha [12]: 0%
- pest or weed control at 125 g/ha [13]: 0%
- pest or weed control at 500 g/ha [13]: 0%
- plant injury at 125 g/ha [14]: 0%
- plant injury at 500 g/ha [14]: 0%
